Data as given in patent US5952368A, “5-aroylpyrrol-2-ylmethylarene derivatives” (Syntex (U.S.A.) Inc., priority 1997, dated 1999).
Like-named read-outs stand apart in the source and are kept apart here.

Tests used:
COX I = biological target: T1, COX I (Homo sapiens, UniProt P23219); assay: Inhibition of COX I in vitro (radiometric assay, 14C arachidonic acid, partially purified enzyme); assay type: biochemical
T1 construct: made in house; baculovirus-infected insect cells by own knowledge of the cited Barnett et al. 1994
T1 sequence (P23219 24-599): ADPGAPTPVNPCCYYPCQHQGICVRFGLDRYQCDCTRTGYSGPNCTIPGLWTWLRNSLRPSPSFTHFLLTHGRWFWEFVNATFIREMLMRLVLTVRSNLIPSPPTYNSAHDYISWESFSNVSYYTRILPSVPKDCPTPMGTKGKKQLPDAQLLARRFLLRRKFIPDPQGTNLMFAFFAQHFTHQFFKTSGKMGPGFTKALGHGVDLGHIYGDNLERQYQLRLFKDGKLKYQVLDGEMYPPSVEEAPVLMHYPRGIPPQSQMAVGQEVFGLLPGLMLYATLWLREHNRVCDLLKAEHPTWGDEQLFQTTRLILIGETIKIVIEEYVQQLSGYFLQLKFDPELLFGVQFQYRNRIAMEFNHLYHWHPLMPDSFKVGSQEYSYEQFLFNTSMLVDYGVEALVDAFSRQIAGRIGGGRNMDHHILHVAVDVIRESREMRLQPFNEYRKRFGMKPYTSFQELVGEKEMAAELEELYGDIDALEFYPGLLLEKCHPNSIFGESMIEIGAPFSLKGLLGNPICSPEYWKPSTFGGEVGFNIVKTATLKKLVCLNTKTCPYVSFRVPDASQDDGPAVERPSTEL
Experimental: (§1) The COX I and COX II inhibitory activity of compounds of this invention in vitro was determined using partially purified COX I and COX II enzymes, prepared as described in J. Barnett et al., Biochim. Biophys. Acta, 1209:130--139 (1994).
(§2) COX I and COX II samples were diluted with Tris-HCl buffer (50 mM Tris-HCl pH 7.9) containing 2 mM EDTA and 10% glycerol and reconstituted by incubating first with 2 mM phenol for 5 minutes and then with 1 micromolar hematin for an additional 5 minutes. 125 μl of the reconstituted COX I or COX II enzyme were preincubated for 10 minutes at room temperature in a shaking water bath with the compounds of the invention dissolved in 2-15 μl of DMSO or the carrier vehicles (control samples). The enzyme reaction was initiated by adding 25 μl of 1-[14C] arachidonic acid (80,000-100,000 cpm/tube; 20 micromolar final concentration) and the reaction was allowed to continue for an additional 45 seconds. The reaction was terminated by adding 100 μl of 2N HCl and 750 μl water. An aliquot (950 μl) of the reaction mixture was loaded onto a 1 ml C18 Sep-Pak column (J. T. Baker, Phillipsburg, N.J.) which had been previously washed with 2-3 ml methanol and equilibrated with 5-6 ml distilled water. Oxygenated products were quantitatively eluted with 3 ml of acetonitrile/water/acetic acid (50:50:0.1, v/v) and the radioactivity in the eluate determined in a scintillation counter.

COX II = biological target: T2, COX II (Homo sapiens, UniProt P35354); assay: Inhibition of COX II in vitro (radiometric assay, 14C arachidonic acid, partially purified enzyme); assay type: biochemical
T2 construct: made in house; baculovirus-infected insect cells by own knowledge of the cited Barnett et al. 1994
T2 sequence (P35354 18-604): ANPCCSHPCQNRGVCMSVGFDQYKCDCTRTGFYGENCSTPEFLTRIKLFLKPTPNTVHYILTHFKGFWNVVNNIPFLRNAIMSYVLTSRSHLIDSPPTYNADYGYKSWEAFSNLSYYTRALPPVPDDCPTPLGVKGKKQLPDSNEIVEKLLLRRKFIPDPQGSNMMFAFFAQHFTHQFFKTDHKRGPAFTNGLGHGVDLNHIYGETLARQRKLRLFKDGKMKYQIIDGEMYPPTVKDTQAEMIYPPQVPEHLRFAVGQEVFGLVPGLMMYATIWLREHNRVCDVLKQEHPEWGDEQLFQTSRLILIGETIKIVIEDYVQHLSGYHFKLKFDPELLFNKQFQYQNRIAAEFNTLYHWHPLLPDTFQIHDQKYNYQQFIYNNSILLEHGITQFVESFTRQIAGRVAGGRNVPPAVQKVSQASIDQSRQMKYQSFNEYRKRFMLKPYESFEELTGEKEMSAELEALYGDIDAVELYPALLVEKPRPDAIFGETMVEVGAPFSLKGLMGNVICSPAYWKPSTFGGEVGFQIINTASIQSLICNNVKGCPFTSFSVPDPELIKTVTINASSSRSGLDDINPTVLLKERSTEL
Experimental: as §1, §2

air pouch PGE2 formation = assay: Inhibition of eicosanoid (PGE2) synthesis in vivo: carrageenan air-pouch model in rats; parameters: species or system rat; conditions: 30 mg/Kg, oral, male rats, 6 hr
Experimental: In this assay, an air-pouch is created in the rat and the PGE2 levels in the air-pouch exudate are measured by enzyme immunoassay. Briefly, male rats were anesthetized using a 60:40 CO2 :O2 mixture and subsequently injected subcutaneously with 20 ml of sterilized air, under aseptic conditions, in the proximal area of the dorsum. This injection of sterile air causes the creation of a subcutaneous "air pouch". The next day, a further 10 ml of sterile air was injected into the previously formed pouch using the same technique. […] Control rats received vehicle alone. After 30 minutes, 5 ml of a 0.5% solution of carrageenan (Sigma, Lambda Type IV) was injected into the air pouch. The rats were euthanized 3 or 6 h after the compound administration. […] The total exudate volume was recorded, and the samples were analyzed for PGE2 and 6-keto PGF1 by ELISA (Titerzyme®, PerSeptive Diagnostics) and TxB2 by radioimmuno assay (New England Nuclear Research, Catalog No. NEK-037), according to the manufacturer's directions.
The mean concentrations of PGE2 were calculated for each group. The anti-inflammatory activity of test materials is expressed as the percent inhibition of PGE2 formation in the test group relative to the control group.

[1] = partially purified COX I, 20 micromolar arachidonic acid, 10 min preincubation, room temperature, read-out: COX I IC50
[2] = partially purified COX II, 20 micromolar arachidonic acid, 10 min preincubation, room temperature, read-out: COX II IC50

Row | Molecule | IC50 (COX I; [1]) [µM] | IC50 (COX II; [2]) [µM] | % Inhibition of air pouch PGE2 formation (air pouch PGE2 formation) [%] | IC50 (COX I) [µM] | IC50 (COX II) [µM]
1 | CNS(=O)(=O)Nc1ccc(Cc2cc(C)c(C(=O)c3ccc(F)cc3)n2C)c(F)c1 [compound 206, 1-{3-Fluoro-4-[5-(4-fluorobenzoyl)-1,4-dimethyl-1H-pyrrol-2-ylmethyl]phenyl}-3-methylsulfamide] | 0.46 | 0.24 |  |  | 
2 | NS(=O)(=O)Nc1ccc(C2CCn3c(C(=O)c4ccccc4)ccc32)c(Cl)c1 (centres unmarked) [compound 222, 1-{3-Chloro-4-[5-benzoyl-1,2-dihydro-3H-pyrrolizin-1-yl]phenyl}sulfamide] | 0.46 | 0.074 |  |  | 
3 | COc1ccc(C(=O)c2ccc3n2CCC3c2ccc(NS(N)(=O)=O)cc2Cl)cc1 (centres unmarked) [compound 223, 1-{3-Chloro-4-[5-(4-methoxybenzoyl)-1,2-dihydro-3H-pyrrolizin-1-yl]phenyl}sulfamide] | 0.064 | 0.029 |  |  | 
4 | Cc1cc(Cc2ccc(NC(=O)N(C)C)cc2)n(C)c1C(=O)c1ccc(Cl)cc1 [compound 226, 1-{1,4-[5-(4-Chlorobenzoyl)-1,4-dimethyl-1H-pyrrol-2-ylmethyl]phenyl}-3,3-dimethylurea] | 100 | 2.1 |  |  | 
5 | Cc1cc(Cc2ccc(NC(=O)Nc3ccccc3)cc2)n(C)c1C(=O)c1ccc(Cl)cc1 [compound 227, 1-{1,4-[5-(4-Chlorobenzoyl)-1,4-dimethyl-1H-pyrrol-2-ylmethyl]phenyl}-3-phenylurea] | 2.5 | 0.1 |  |  | 
6 | Cc1cc(Cc2ccc(NC(=O)Nc3cccc(Cl)c3)cc2)n(C)c1C(=O)c1ccc(Cl)cc1 [compound 228, 1-{4-[5-(4-Chlorobenzoyl)-1,4-dimethyl-1H-pyrrol-2-ylmethyl]phenyl}-3-(3-chlorophenyl)-urea] | 8.5 | 0.1 |  |  | 
7 | CCNC(=S)Nc1ccc(Cc2cc(C)c(C(=O)c3ccc(Cl)cc3)n2C)cc1 [compound 235] | 8.2 | 0.17 |  |  | 
8 | CNC(=S)Nc1ccc(Cc2cc(C)c(C(=O)c3ccc(Cl)cc3)n2C)cc1 [compound 236] | 15 | 0.51 | 71 |  | 
9 | Cc1cc(Cc2ccc(NC(=O)CF)cc2)n(C)c1C(=O)c1ccc(Cl)cc1 [compound 243, N-{4-[5-(4-Chlorobenzoyl)-1,4-dimethyl-1H-pyrrol-2-ylmethyl]phenyl}fluoroacetamide] |  |  |  | 100 | 8.9
10 | Cc1cc(Cc2ccc(N)cc2)n(C)c1C(=O)c1ccc(Cl)cc1 [compound 250, 4-[5-(4-Chlorobenzoyl)-1,4-dimethyl-1H-pyrrol-2-ylmethyl]aniline] | 34 | 27.4 |  |  | 
11 | CSc1ccc(C(=O)c2c(C)cc(Cc3ccc(N)cc3F)n2C)cc1 [compound 251, 3-Fluoro-4-[5-(4-methylthiobenzoyl)-1,4-dimethyl-1H-pyrrol-2-ylmethyl]aniline] | 310 | 0.64 |  |  | 
12 | Cc1cc(Cc2ccc(NS(=O)(=O)CCO)cn2)n(C)c1C(=O)c1ccc(Cl)cc1 [compound 267, N-{2-[5-(4-Chlorobenzoyl)-1,4-dimethyl-1H-pyrrol-2-ylmethyl]pyridin-5-yl}-2-(hydroxy)ethanesulfonamide] | 210 | 0.7 |  |  | 
13 | Cc1ccc(C(=O)c2ccc(Cc3ncc(NS(C)(=O)=O)cc3Cl)n2C)cc1 [compound 276, N-{3-Chloro-2-[5-(4-methylbenzoyl)-1-methyl-1H-pyrrol-2-ylmethyl]pyridin-5-yl}-methanesulfonamide] | 60 | 0.5 |  |  | 
14 | COc1ccc(C(=O)c2c(C)cc(Cc3ccc(NS(C)(=O)=O)cn3)n2C)cc1 [compound 289, N-{2-[5-(4-Methoxybenzoyl)-1,4-dimethyl-1H-pyrrol-2-ylmethyl]pyridin-5-yl}-methanesulfonamide] | 10.2 | 1.5 |  |  | 
15 | Cc1cc(Cc2ccc(NS(=O)(=O)N(C)C)cn2)n(C)c1C(=O)c1ccccc1 [compound 294, 1-{2-[5-Benzoyl-1,4-dimethyl-1H-pyrrol-2-ylmethyl]pyridin-5-yl}-3,3-dimethylsulfamide] | 9.1 | 2.6 |  |  | 
16 | Cc1cc(Cc2ccc(NS(N)(=O)=O)cn2)n(C)c1C(=O)c1ccccc1 [compound 295, 1-{2-[5-benzoyl-1,4-dimethyl-1H-pyrrol-2-ylmethyl]pyridin-5-yl}sulfamide] | 0.6 | 0.1 |  |  | 
17 | CSc1ccc(C(=O)c2c(C)cc(Cc3ccc(NS(=O)(=O)N(C)C)cn3)n2C)cc1 [compound 296, 1-{2-[5-(4-Methylthiobenzoyl)-1,4-dimethyl-1H-pyrrol-2-ylmethyl]pyridin-5-yl}-3,3-di-methylsulfamide] | 0.21 | 0.4 |  |  | 
18 | COc1ccc(C(=O)c2ccc(Cc3ccc(NS(N)(=O)=O)cn3)n2C)cc1 [compound 306, 1-{2-[5-(4-Methoxybenzoyl)-1-methyl-1H-pyrrol-2-ylmethyl]pyridin-5-yl}sulfamide] | 113 | 0.64 |  |  | 
19 | Cc1cc(Cc2ccc(NC(=O)N(C)C)cn2)n(C)c1C(=O)c1ccc(Cl)cc1 [compound 308, 1-{2-[5-(4-Chlorobenzoyl)-1,4-dimethyl-1H-pyrrol-2-ylmethyl]pyridin-5-yl}-3,3-di-methylurea] | 650 | 8.75 |  |  | 
20 | Cc1cc(Cc2ccc(NC(=O)NCCCl)cn2)n(C)c1C(=O)c1ccc(Cl)cc1 [compound 310, 1-{2-[5-(4-Chlorobenzoyl)-1,4-dimethyl-1H-pyrrol-2-ylmethyl]pyridin-5-yl}-3-(2-chloro-ethyl)urea] | 142 | 9.2 |  |  | 
21 | CCNC(=S)Nc1ccc(Cc2cc(C)c(C(=O)c3ccc(Cl)cc3)n2C)nc1 [compound 314, 1-{2-[5-(4-Chlorobenzoyl)-1,4-dimethyl-1H-pyrrol-2-ylmethyl]pyridin-5-yl}-3-ethyl-2-thiourea] | 65 | 0.56 |  |  | 
22 | Cc1cc(Cc2ccc(NC(=S)Nc3ccccc3)cn2)n(C)c1C(=O)c1ccc(Cl)cc1 [compound 316, 1-{2-[5-(4-Chlorobenzoyl)-1,4-dimethyl-1H-pyrrol-2-ylmethyl]pyridin-5-yl}-3-phenyl-2-thiourea] | 360 | 0.2 |  |  | 
23 | CC(=O)Nc1ccc(Cc2cc(C)c(C(=O)c3ccc(Cl)cc3)n2C)nc1 [compound 329, N-{2-[5-(4-Chlorobenzoyl)-1,4-dimethyl-1H-pyrrol-2-ylmethyl]pyridin-5-yl}acetamide] | 256 | 43.7 |  |  | 
24 | Cc1cc(Cc2ccc(NC=O)cn2)n(C)c1C(=O)c1ccc(Cl)cc1 [compound 330, N-{2-[5-(4-Chlorobenzoyl)-1,4-dimethyl-1H-pyrrol-2-ylmethyl]pyridin-5-yl}formamide] | 61.1 | 30 |  |  | 
25 | Cc1cc(Cc2ccc(NS(C)(=O)=O)cc2F)n(C)c1C(=O)c1cccs1 [compound 340, N-{3-Fluoro-4-[5-(2-thenoyl)-1,4-dimethyl-1H-pyrrol-2-ylmethyl]phenyl}-methanesulfonamide] | 0.02 | 0.06 |  |  | 
26 | N-{2-[5-(4-Methylbenzoyl)-1,4-dimethyl-1H-pyrrol-2-ylmethyl]pyridin-5-yl}- 2-(hydroxy)-ethanesulfonamide hydrochloride [compound 272] | > 1000 | 2.1 |  |  | 
